Source: patent US11571443B2, “Phosphorylated tri-block copolymers with antimicrobial properties” (THE UNIVERSITY OF CHICAGO, priority 2016, dated 2023)
“Also recorded” adds a separate entry of the source.

Experiments:
[1] = system: P. aeruginosa; conditions: supplementation in the drinking water; cited from earlier work
[2] = system: human pathogen community; assay: Mice with 30% hepatectomy and intestinal infection with human pathogen community, polymers in drinking water; type: in vivo
Description: (A) FIG. 10(A) provides data showing the extent of cell proliferation in cecal crypts of mice provided with drinking water lacking a phosphorylated PEG (PC 1-3, i.e., pathogen community, plates 1-3 wherein each plate contained 10 or 15 C. elegans worms exposed to pathogens), drinking water containing 3% PPi6 (hexametaphosphate) (PPi6 1-3 refers to plates 1-3 as described above, but exposed to pathogens from mice drinking 3% PPi6), or drinking water containing 1% ABA-PEG20k (ABA-PEG20k-P120 1-3, wherein 1-3 refers to plates 1-3 as described above exposed to pathogen from mice drinking 1% ABA-PEG20k). All groups are SAH+PC (starvation-positive, antibiotic-positive hepatectomy subjects exposed to the pathogen community), POD2 (data from post-operative day 2), and cell proliferation is measured by immunostaining for Ki67.
An experiment was conducted to assess the effects of phosphorylated polymers, i.e., PPi-6 and ABA-PEG20k-Pi20, delivered orally as drinking solutions to mice subjected to 30% hepatectomy and intestinal infection with the human pathogen community. More particularly, the mice were divided into the following groups. Group 1 contained starvation-positive, antibiotic-positive mice receiving no phosphorylated PEG but exposed to the pathogen community. Data from three groups of mice were analyzed. Absolute (FIG. 16A) and relative to crypt depth (FIG. 16B) Ki67 distributions were counted on 90 crypts cumulative of 3 mice in each group. Group 2 contained starvation-positive, antibiotic-positive mice receiving 3% PPi-6 and exposed to the pathogen community. Data from three mice were analyzed, totaling 109 crypts for Ki67 counts. Group 3 contained starvation-positive, antibiotic-positive mice receiving 1% ABA-PEG20k-Pi20 and exposed to the pathogen community. Data from three mice were analyzed, totaling 168 crypts for Ki67 counts.
Stem cell proliferation in cecal crypts, measured by immunostaining for the Ki67 marker, provides an accepted measure of crypt homeostasis.

[3] = system: E. faecalis E2; conditions: oral administration
Description: Next, the compound was tested in a mouse model of E. faecalis-mediated anastomotic leak by providing 1% ABA-PEG20k-Pi20 in drinking water. At post-operative day (POD) 7, anastomotic healing was assessed and the total amount of E. faecalis present at the anastomotic site and the percentage of E. faecalis expressing the collagenolytic phenotype were determined.
Two groups of mice were involved in this study. All mice were subjected to colon anastomosis followed by an enema of E. faecalis E2 at POD1. The first group received water, and the second group received 1% ABA-PEG20k-Pi20 dissolved in water. At the time of sacrifice at POD7, the tissues and luminal contents were collected at the site of anastomosis, homogenized, and used for culturing. Total Enterococcus colonization at the anastomosis site and luminal content were determined by culture analysis using Enterococcal selective plates (BD Difco) on which all Enterococcus species produced black-pigmented colonies. The CFU count was normalized to the sample weight. […] The collagenolytic population was evaluated on Enterococcal plates covered with skim milk on which collagenolytic species produced black colonies with a clearing halo surrounding the colony.

[4] = system: P. aeruginosa; conditions: cited from earlier work
[5] = system: S. marcescens; conditions: supplementation in the drinking water; cited from earlier work
[6] = system: S. marcescens; conditions: cited from earlier work
[7] = system: Enterococcus faecalis; assay: Growth of Enterococcus faecalis; type: cell-based; conditions: in vitro
Description: The inability of PPi-6 to suppress the collagenolytic activity of E. faecalis in vitro relates to its inability in vivo to improve anastomotic healing. […] The efficacy of this compound in vivo correlated to its ability to profoundly suppress collagenase activity in these strains […]. […] Actually, PPi-6 at concentrations of >2 mM even suppressed the E. faecalis growth.

[8] = system: Enterococcus faecalis collagenolytic strains (E2 and E27); assay: Collagenase production of collagenolytic Enterococcus faecalis, overnight incubation; type: cell-based; conditions: in vitro
[9] = 3% PPi6 or 1% polymer in drinking water, POD2, SAH+PC mice

## O=P1([O-])OP(=O)([O-])OP(=O)([O-])OP(=O)([O-])OP(=O)([O-])OP(=O)([O-])O1.[Na+].[Na+].[Na+].[Na+].[Na+].[Na+] [PPi-6, Sodium hexametaphosphate]
[1]
  protection from colonic anastomosis leakage: protects mice from colonic anastomosis leakage
[2]; 3% PPi6 or 1% ABA-PEG20k-Pi20 in drinking water
  abnormal stem cell proliferation in cecal crypts: inhibit abnormal stem cell proliferation
[2]; [9]
  height of cell proliferation above cecal crypt base (Ki67): 31.04±1.288 m
  height of proliferating cells relative to cecal crypt depth (Ki67): 35.12±1.332 m
[2]; post-operative day 2, 3% PPi6 or 1% ABA-PEG20k-Pi20 in drinking water
  mortality rate: 0%
[3]
  anastomotic healing / protection in mouse model: did not improve the anastomotic healing complications
[4]
  collagenase production: profoundly suppresses the collagenase production
[5]
  protection from colonic anastomosis leakage: protects mice from colonic anastomosis leakage
[6]
  collagenase production: profoundly suppresses the collagenase production
[7]
  E. faecalis growth: does not promote a growth
  concentration that suppressed E. faecalis growth: > 2 mM
[8]
  collagenase production / collagenolytic activity of E. faecalis: only slightly attenuated collagenase production; also recorded: does not affect the collagenolytic activity
